Results: patent US7132231B2, “Fluorescence polarization method for determining viral inhibitors” (priority 2001, dated 2006)

Key:
[1] = Cytotoxicity assay (XTT / crystal violet); type: cell-based, African green monkey; settings: monkey; Vero cells, 72 h; read-out: Toxicity IC50
Description: DNA polymerase long-chain synthesis assay. Compounds which elicited a decrease in the fluorescence polarization, when compared to control values, were tested for the ability to inhibit long-chain DNA synthesis via inhibition of polymerase subunit assembly [Digard et al. 1995; Bridges et al. 2001] using a poly-A template (Amersham Pharmacia) and an oligo-dT primer (Roche Molecular Biochemicals) on which Pol alone adds only a few bases. Reaction mixtures (50 mM Tris-HCl pH 7.5, 100 mM ammonium sulfate, 3 mM MgCl2, 0.1 mM EDTA, 1 mM DTT, 4% Glycerol, 40 ug ml^−1 BSA, 100 ug ml^−1 primer/template, 50 uM α-^32P-TTP (111 TBq/mmol; NEN Life Science products)), contained 200 fmol of HSV Pol ([Weisshart et al. 1994]), 400 fmol of HSV MBP-UL42 and varying amounts of compound in a final volume of 25 ul. Reactions were carried out at 37° C. for 5 minutes and stopped by adding 5 ul of alkaline loading buffer (2mM EDTA, 50mM NaOH, 2.5% glycerol, 0.025% bromocresol green) and placing them on ice and were then loaded onto an 4% alkaline agarose gel. Gels were dried over night and exposed to phosphorescence screens (BioRad). Catalytic subunit activity filter binding assay. Compounds which elicited a decrease in fluorescence polarization were tested for the ability to inhibit DNA synthesis by Pol alone using the oligo-(dT)/poly-(dA) primer-template. Reaction mixtures (50 mM TrisHCl pH 7.5, 100 mM ammonium sulfate, 3 mM MgCl2, 0.1 mM EDTA, 1 mM DTT, 4% Glycerol, 40 μg ml^31 1 BSA, 100 μg ml^−1 primer/template, 50 μM α-^32P-TTP (111 TBq/mmol)) contained 200 fmol of HSV Pol and various amounts of each compound in a final volume of 25 μl. Reactions were carried out at 37° C. for 25 minutes and stopped by placing 10 μl of the reaction mix onto DE81 filter discs. After washes in sodium hydrogen phosphate, water and ethanol, they were counted in a liquid scintillation analyzer (Packard 1600 TR). Plaque reduction assay. Confluent monolayers of Vero (African green monkey kidney) cells in 12-well dishes were infected with herpes virus strain 17 dilutions such that each well received between 25 and 50 PFU. Diluted virus was absorbed to cells in 2 ml Dulbecco's modified Eagle's medium containing 2.5% newborn calf serum, 100 U penicillin G ml^−1 and 100 ug streptomycin sulfate ml^−1 for 1 hour at 37° C. in a humidified CO2 incubator. After absorption, triplicate infected cultures were overlaid with 2% methyl cellulose in Dulbecco's modified Eagle's medium containing 5% newborn calf serum, 100 U penicillin G ml^−1, 100 ug streptomycin sulfate ml^−1 and various concentrations of the compounds which elicited a decrease in fluorescence polarization and incubated at 37° C. in a humidified CO2 incubator. Plaques were visualized by crystal violet staining at 2 to 3 days post infection and were counted on the following day [Coen et al. 1985]. Cytotoxicity assays. Vero cells (5×10^4 cells per well) were seeded into 96-well plates and treated with various concentrations of the compounds (which elicited a decrease in the fluorescence polarization) for 72 h in quadruplicates. […] In parallel, equally compound-treated cells were fixed by adding 95% ethanol, stained with crystal violet solution and washed. After addition of 100 ul acidified ethanol (EtOH:HCl=99:1) to dissolve the crystal violet, the plates were read in the plate reader (Wallac). Viral yield assay. […] After two days, plaques were stained and counted under a microscope [Pritchard et al. 1990]. […]

[2] = biological target: T1, Pol/UL42 long-chain DNA synthesis (HSV Pol + HSV MBP-UL42) (Human herpesvirus 1, UniProt P10226); assay: DNA polymerase long-chain synthesis assay; type: biochemical, herpes simplex virus
T1 construct: in presence of the whole catalytic subunit; made in house; host or cells: UL42 fusion: E. coli BL21(de3)pLysS
T1 sequence (P10226 1-339): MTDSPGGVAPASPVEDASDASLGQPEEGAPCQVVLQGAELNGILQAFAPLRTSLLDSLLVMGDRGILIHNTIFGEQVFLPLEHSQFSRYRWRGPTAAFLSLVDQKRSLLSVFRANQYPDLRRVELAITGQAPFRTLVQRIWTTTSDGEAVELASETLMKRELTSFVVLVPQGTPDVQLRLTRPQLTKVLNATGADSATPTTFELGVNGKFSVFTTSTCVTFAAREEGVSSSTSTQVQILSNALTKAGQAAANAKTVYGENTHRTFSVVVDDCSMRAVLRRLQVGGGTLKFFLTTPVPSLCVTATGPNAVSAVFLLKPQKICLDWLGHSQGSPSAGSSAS
Description: (§1) DNA polymerase long-chain synthesis assay. Compounds which elicited a decrease in the fluorescence polarization, when compared to control values, were tested for the ability to inhibit long-chain DNA synthesis via inhibition of polymerase subunit assembly [Digard et al. 1995; Bridges et al. 2001] using a poly-A template (Amersham Pharmacia) and an oligo-dT primer (Roche Molecular Biochemicals) on which Pol alone adds only a few bases. Reaction mixtures (50 mM Tris-HCl pH 7.5, 100 mM ammonium sulfate, 3 mM MgCl2, 0.1 mM EDTA, 1 mM DTT, 4% Glycerol, 40 ug ml^−1 BSA, 100 ug ml^−1 primer/template, 50 uM α-^32P-TTP (111 TBq/mmol; NEN Life Science products)), contained 200 fmol of HSV Pol ([Weisshart et al. 1994]), 400 fmol of HSV MBP-UL42 and varying amounts of compound in a final volume of 25 ul. Reactions were carried out at 37° C. for 5 minutes and stopped by adding 5 ul of alkaline loading buffer (2mM EDTA, 50mM NaOH, 2.5% glycerol, 0.025% bromocresol green) and placing them on ice and were then loaded onto an 4% alkaline agarose gel. Gels were dried over night and exposed to phosphorescence screens (BioRad). Catalytic subunit activity filter binding assay. Compounds which elicited a decrease in fluorescence polarization were tested for the ability to inhibit DNA synthesis by Pol alone using the oligo-(dT)/poly-(dA) primer-template. Reaction mixtures (50 mM TrisHCl pH 7.5, 100 mM ammonium sulfate, 3 mM MgCl2, 0.1 mM EDTA, 1 mM DTT, 4% Glycerol, 40 μg ml^31 1 BSA, 100 μg ml^−1 primer/template, 50 μM α-^32P-TTP (111 TBq/mmol)) contained 200 fmol of HSV Pol and various amounts of each compound in a final volume of 25 μl. Reactions were carried out at 37° C. for 25 minutes and stopped by placing 10 μl of the reaction mix onto DE81 filter discs. After washes in sodium hydrogen phosphate, water and ethanol, they were counted in a liquid scintillation analyzer (Packard 1600 TR). Plaque reduction assay. Confluent monolayers of Vero (African green monkey kidney) cells in 12-well dishes were infected with herpes virus strain 17 dilutions such that each well received between 25 and 50 PFU. Diluted virus was absorbed to cells in 2 ml Dulbecco's modified Eagle's medium containing 2.5% newborn calf serum, 100 U penicillin G ml^−1 and 100 ug streptomycin sulfate ml^−1 for 1 hour at 37° C. in a humidified CO2 incubator. After absorption, triplicate infected cultures were overlaid with 2% methyl cellulose in Dulbecco's modified Eagle's medium containing 5% newborn calf serum, 100 U penicillin G ml^−1, 100 ug streptomycin sulfate ml^−1 and various concentrations of the compounds which elicited a decrease in fluorescence polarization and incubated at 37° C. in a humidified CO2 incubator. Plaques were visualized by crystal violet staining at 2 to 3 days post infection and were counted on the following day [Coen et al. 1985]. Cytotoxicity assays. Vero cells (5×10^4 cells per well) were seeded into 96-well plates and treated with various concentrations of the compounds (which elicited a decrease in the fluorescence polarization) for 72 h in quadruplicates. […] In parallel, equally compound-treated cells were fixed by adding 95% ethanol, stained with crystal violet solution and washed. After addition of 100 ul acidified ethanol (EtOH:HCl=99:1) to dissolve the crystal violet, the plates were read in the plate reader (Wallac). Viral yield assay. Vero cells were seeded into 96-well (5×10^4 cells per well) tissue culture plates in 0.2 ml Dulbecco's modified Eagle's medium containing 2.5% newborn calf serum and 100 U penicillin G ml^−1. Cultures were inoculated with HSV strain 17 at an MOI of 5 PFU per cell. The virus inoculum was replaced after two hours with medium containing dilution series of test compounds and left for 24 hours. After two cycles of freeze-thawing, each drug dilution row was transferred to a freshly seeded 96-well plate and serially 1:3 diluted over the whole plate. After two days, plaques were stained and counted under a microscope [Pritchard et al. 1990]. […]

HSV Pol [3] = biological target: T2, HSV Pol (Human herpesvirus 1, UniProt P04293); assay: Catalytic subunit activity filter binding assay (Pol alone); type: biochemical, herpes simplex virus
T2 construct: in presence of the whole catalytic subunit
T2 sequence (P04293 whole entry N46K): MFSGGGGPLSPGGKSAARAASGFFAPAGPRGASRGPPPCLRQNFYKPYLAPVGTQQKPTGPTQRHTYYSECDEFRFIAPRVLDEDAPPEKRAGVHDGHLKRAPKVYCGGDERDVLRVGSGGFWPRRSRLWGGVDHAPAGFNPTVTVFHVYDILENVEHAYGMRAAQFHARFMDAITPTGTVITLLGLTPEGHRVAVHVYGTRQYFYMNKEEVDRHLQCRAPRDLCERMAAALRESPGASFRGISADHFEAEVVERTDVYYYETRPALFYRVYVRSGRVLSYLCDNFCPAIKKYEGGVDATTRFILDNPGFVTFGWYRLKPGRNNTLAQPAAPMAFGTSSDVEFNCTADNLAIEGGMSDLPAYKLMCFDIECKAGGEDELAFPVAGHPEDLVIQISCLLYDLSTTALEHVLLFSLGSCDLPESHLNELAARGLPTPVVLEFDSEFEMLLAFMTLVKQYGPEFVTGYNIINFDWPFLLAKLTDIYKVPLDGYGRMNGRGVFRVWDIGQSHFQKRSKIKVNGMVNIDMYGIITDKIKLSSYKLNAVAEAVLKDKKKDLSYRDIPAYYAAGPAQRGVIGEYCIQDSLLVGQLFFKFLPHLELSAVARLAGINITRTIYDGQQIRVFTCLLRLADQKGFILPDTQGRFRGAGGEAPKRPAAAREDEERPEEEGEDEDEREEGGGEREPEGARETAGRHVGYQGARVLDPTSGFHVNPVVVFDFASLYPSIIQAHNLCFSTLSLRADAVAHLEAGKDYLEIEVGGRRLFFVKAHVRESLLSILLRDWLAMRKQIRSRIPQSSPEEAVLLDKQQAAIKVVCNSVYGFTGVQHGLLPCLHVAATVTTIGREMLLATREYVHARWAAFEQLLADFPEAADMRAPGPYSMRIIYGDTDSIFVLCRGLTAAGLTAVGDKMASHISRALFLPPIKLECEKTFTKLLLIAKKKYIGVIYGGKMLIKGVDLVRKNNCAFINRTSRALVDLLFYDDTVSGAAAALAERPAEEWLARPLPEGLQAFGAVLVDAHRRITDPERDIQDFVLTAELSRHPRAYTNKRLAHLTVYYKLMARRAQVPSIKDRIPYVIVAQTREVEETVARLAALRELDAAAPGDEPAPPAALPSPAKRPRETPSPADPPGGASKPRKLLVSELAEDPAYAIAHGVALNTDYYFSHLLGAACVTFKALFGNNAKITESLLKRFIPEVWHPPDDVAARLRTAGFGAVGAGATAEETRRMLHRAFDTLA
Description: as §1

HSV Pol [4] = biological target: T3, HSV Pol (Human herpesvirus 1, UniProt P04293, N46K); assay: as above; type: biochemical, herpes simplex virus; settings: at higher compound concentrations, FIG. 5
T3 construct: in presence of the whole catalytic subunit
T3 sequence (P04293 whole entry N46K): as above
Description: as §1

[5] = biological target: T4, Pol/UL42 interaction (Oregon Green-peptide E / MBP-UL42Δ340) (Human herpesvirus 1, UniProt P10226); assay: Fluorescence polarization (FP) assay of Pol peptide/UL42 binding; set-up: species or system herpes simplex virus
T4 construct: made in house; host or cells: E. coli BL21(de3)pLysS (UL42Δ340 fusion); peptide E synthetic
T4 sequence (P10226 1-339, stated change not applied): as the sequence (P10226 1-339) above
Description: Peptide probe and MBP-UL42. A peptide comprising the 18 C-terminal amino acids of HSV Pol (peptide E) was synthesized, N-terminally labeled with the pentafluorofluorescein-derivative Oregon Green 514 (Molecular Probes) and HPLC-purified. A truncated version of UL42 (UL42Δ340) was expressed in BL21(de3)pLysS E.coli as maltose binding protein fusion as described [Bridges et al. 2001] and purified over an amylose column (New England Biolabs). […] After elution with 10 mM maltose in 50 mM TrisHCl, 1 mM DTT, 0.5 mM EDTA, 4% Glycerol, 200 mM NaCl and Complete™ protease inhibitors (Roche Molecular Biochemicals), the protein was concentrated when necessary and stored at −80° C. until further use. After thawing, the purification buffer was exchanged to low fluorescent grade reagents (PanVera) and maltose was removed simultaneously using 10-DG Bio-Gel columns (BioRad). Fluorescence polarization assays. 1 nM of Oregon Green-peptide E was added to 7 uM MBP-UL42Δ340 and kept on ice until the mix was distributed into black 384-well plates (LJL Biosystems) in a total volume of 20 ul per well. The buffer conditions were 50 mM TrisHCl pH 7.5, 1 mM DTT, 0.5 mM EDTA, 150 mM NaCl, 4% Glycerol and 100 ug ml^−1 bovine gamma globulin. All chemicals were low fluorescent grade (PanVera).
Using this assay, the 16,320 compound Chembridge library that had been purchased by the Harvard Institute of Chemistry and Cell Biology (ICBB) was screened. Small molecules (5 mg ml^−1 in DMSO; ChemBridge) were screened using 384-pin arrays (Genetix), and 40 nl of each compound was transferred into every well. After incubation between 5 and 45 minutes at room temperature, the FP values were determined in the Analyst plate reader (LJL Biosystems). Chemicals for further testing were obtained from ChemBridge.
DNA polymerase long-chain synthesis assay. Compounds which elicited a decrease in the fluorescence polarization, when compared to control values, were tested for the ability to inhibit long-chain DNA synthesis via inhibition of polymerase subunit assembly [Digard et al. 1995; Bridges et al. 2001] using a poly-A template (Amersham Pharmacia) and an oligo-dT primer (Roche Molecular Biochemicals) on which Pol alone adds only a few bases. Reaction mixtures (50 mM Tris-HCl pH 7.5, 100 mM ammonium sulfate, 3 mM MgCl2, 0.1 mM EDTA, 1 mM DTT, 4% Glycerol, 40 ug ml^−1 BSA, 100 ug ml^−1 primer/template, 50 uM α-^32P-TTP (111 TBq/mmol; NEN Life Science products)), contained 200 fmol of HSV Pol ([Weisshart et al. 1994]), 400 fmol of HSV MBP-UL42 and varying amounts of compound in a final volume of 25 ul. Reactions were carried out at 37° C. for 5 minutes and stopped by adding 5 ul of alkaline loading buffer (2mM EDTA, 50mM NaOH, 2.5% glycerol, 0.025% bromocresol green) and placing them on ice and were then loaded onto an 4% alkaline agarose gel. Gels were dried over night and exposed to phosphorescence screens (BioRad). Catalytic subunit activity filter binding assay. Compounds which elicited a decrease in fluorescence polarization were tested for the ability to inhibit DNA synthesis by Pol alone using the oligo-(dT)/poly-(dA) primer-template. Reaction mixtures (50 mM TrisHCl pH 7.5, 100 mM ammonium sulfate, 3 mM MgCl2, 0.1 mM EDTA, 1 mM DTT, 4% Glycerol, 40 μg ml^31 1 BSA, 100 μg ml^−1 primer/template, 50 μM α-^32P-TTP (111 TBq/mmol)) contained 200 fmol of HSV Pol and various amounts of each compound in a final volume of 25 μl. Reactions were carried out at 37° C. for 25 minutes and stopped by placing 10 μl of the reaction mix onto DE81 filter discs. After washes in sodium hydrogen phosphate, water and ethanol, they were counted in a liquid scintillation analyzer (Packard 1600 TR). Plaque reduction assay. Confluent monolayers of Vero (African green monkey kidney) cells in 12-well dishes were infected with herpes virus strain 17 dilutions such that each well received between 25 and 50 PFU. […]

[6] = tested on: Pol/UL42 long-chain DNA synthesis (HSV Pol + HSV MBP-UL42); settings: literature values [Digard et al. 1995; Bridges et al. 2000]; read-out: IC50 for specific inhibition of UL42 stimulated long-chain DNA synthesis; cited from earlier work

| Compound | CC50 at 72 h [1] [µM] | IC50 [2] [µM] | ability of UL42 to stimulate long-chain synthesis by Pol ([2]; FIG. 4, BP1, BP3, BP5 at 30 μM, BP9 at 100, 75, 50, 25 and 12 μM) | IC50 (HSV Pol [3]) [µM] | Pol activity in absence of UL42 (HSV Pol [4]) | IC50 [5] [µM] | dose dependent change in the FP signal ([5]; serial dilution, FIG. 3) | IC50 [6] [µM] |
| --- | --- | --- | --- | --- | --- | --- | --- | --- |
| CSCCC(C(=O)O)N1C(=O)/C(=C/c2ccc(Cl)cc2Cl)SC1=S (stereo not drawn) [BP9] | 200 | 25 | greatly reduced | 25 | significantly reduced | 48 | dose dependent change | – |
| CSCC[C@H](NC(=O)[C@H](CCCNC(=N)N)NC(=O)[C@H](CCCNC(=N)N)NC(=O)[C@@H](NC(=O)[C@H](CCC(=O)O)NC(=O)[C@H](CCC(=O)O)NC(=O)[C@H](C)NC(=O)[C@@H](NC(=O)[C@H](C)NC(=O)CNC(=O)[C@H](C)NC(=O)CNC(=O)[C@@H](NC(=O)[C@H](C)NC(=O)CNC(=O)[C@H](Cc1ccccc1)NC(=O)CNC(=O)[C@H](C)NC(=O)[C@@H](NC(=O)[C@H](CCCNC(=N)N)NC(=O)[C@H](CC(C)C)NC(=O)[C@H](CCCNC(=N)N)NC(=O)[C@H](C)NC(=O)[C@H](C)NC(=O)[C@@H](NC(=O)[C@H](CC(=O)O)NC(=O)[C@H](CC(=O)O)NC(C)=O)C(C)C)[C@@H](C)O)C(C)C)[C@@H](C)O)[C@@H](C)O)C(=O)N[C@@H](CC(C)C)C(=O)N[C@@H](Cc1c[nH]cn1)C(=O)N[C@@H](CCCNC(=N)N)C(=O)N[C@@H](C)C(=O)N[C@@H](Cc1ccccc1)C(=O)N[C@@H](CC(=O)O)C(=O)N[C@H](C(=O)N[C@@H](CC(C)C)C(=O)N[C@@H](C)C(N)=O)[C@@H](C)O [peptide A] | – | – | – | – | – | – | – | 3 |
| ATAEEETRRMLHRAFDTLA [peptide E, Ac-Ala-Thr-Ala-Glu-Glu-Glu-Thr-Arg-Arg-Met-Leu-His-Arg-Ala-Phe-Asp-Thr-Leu-Ala-NH2] | – | – | – | – | – | – | – | 11 |
